Source: article PMC8287944, “5-Fluorouracil blocks quorum-sensing of biofilm-embedded methicillin-resistant Staphylococcus aureus in mice” (Nucleic Acids Research, 2021)

Experiments:
[1] = tested on: V. harveyi (BB170); experiment: V. harveyi BB170 bioluminescence (5 h); format: cell-based, Vibrio harveyi; details: V. harveyi BB170, 5 h
Procedure: (§1) The test strain V. harveyi BB170 was grown overnight in Luria Marine (LM)-medium ([25]). The culture was 1:500 diluted in AB-medium (0.3 M NaCl, 10 mM potassium phosphate, 1 mM L-arginine, […], 1% glycerol) the next day, and then challenged with various chemical compounds. After 5 h of shaking at 200 rpm at 30°C, the bioluminescence of BB170 was quantified on a GENios Pro plate reader (Tecan, Männedorf, Switzerland).
(§2) Figure 3. Bioactivity of hit candidates against Vibrio harveyi. Effect on bacterial growth. V. harveyi (BB170) was grown in the presence of individual compounds (A–H) for 5 h and the bioluminescence (green circles) was quantified. After a total of 24 h, bacterial growth (+) was evaluated by measuring the optical density (OD600). The gray translucent background in (C) represents the narrow range within which the compound reduces bioluminescence without affecting growth.

[2] = tested on: V. harveyi (BB170); experiment: V. harveyi BB170 growth (OD600 after 24 h); format: cell-based, Vibrio harveyi; details: V. harveyi BB170, OD600 after 24 h
Procedure: as §1, §2

[3] = tested on: HEK-293AI2 cells; format: cell-based, human; details: human, 5 µM
Procedure: To monitor viable cells with active metabolism, we employed a fast resazurin assay. […] To calculate the relative cell viability, the fluorescence of DMSO-treated cells was set to 100%.
Figure 2. Cell-based primary screen for AI-2 biosynthesis inhibitors. (A) Detailed assay protocol of the primary screen using engineered mammalian cells to identify inhibitors of quorum sensing. […] Aliquots of 10 μl of culture supernatants were transferred to black-bottomed assay plates and mixed with 40 μl of V. harveyi MM32 (AI-2 biosensor). AI-2-induced bioluminescence was measured 4 h later and normalized against the controls. In a secondary screen, the dose-response relationships of hit compounds are analyzed. To simultaneously assess effects on cell viability, compound-treated cells were supplemented with PrestoBlue and incubated for 1 h prior to resorufin fluorescence quantification. (B) Z’-evaluation of the AI-2 inhibitor assay. […] Bioactivity and viability are calculated as percentages, based on the positive control value (taken as 100%) and negative control value (taken as 0%). […] Data points in (C) represent means of biological duplicates.

O=c1[nH]cc(F)c(=O)[nH]1 [5-Fluorouracil]
Effect on V. harveyi bioluminescence [1]: reduced the bioluminescence
Effect on V. harveyi growth [2]: without decreasing the growth
Viability of Ctrl (%) [3]: 1.53%
